One test addresses T1, B1R receptor of the rat (Rattus norvegicus, UniProt P97583).
T1 construct: host or cells: CHO K1 cells (Chinese hamster ovary), stably transfected
T1 sequence (P97583 1-337): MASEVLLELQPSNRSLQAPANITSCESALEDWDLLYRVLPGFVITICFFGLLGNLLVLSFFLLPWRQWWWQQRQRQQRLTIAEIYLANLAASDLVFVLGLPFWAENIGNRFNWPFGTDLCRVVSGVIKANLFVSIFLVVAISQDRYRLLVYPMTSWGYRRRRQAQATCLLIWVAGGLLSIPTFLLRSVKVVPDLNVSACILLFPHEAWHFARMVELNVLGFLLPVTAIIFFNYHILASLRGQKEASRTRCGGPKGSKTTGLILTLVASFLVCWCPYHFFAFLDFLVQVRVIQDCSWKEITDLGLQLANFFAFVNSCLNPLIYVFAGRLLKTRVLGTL
As to the kind of experiment: Functional study on the bradykinin receptor 1 (B1R), FLIPR Ca2+ assay, rB1R cells. The following applies: CHO-K1, test substance 10 μM, agonist Des-Arg9-bradykinin 100 nM, % inhibition compared with the maximum achievable inhibition, read-out: B1R Antagonism, rat [10 μM] % Inhibition. Format: cell-based. A digest of the protocol: (§1)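 FLIPR Ca2+ read-out (Fluo-4, peak fluorescence) in stably transfected CHO K1 cells. Compounds at 10 μM, then 10 min later agonist challenge: human B1R with Lys-Des-Arg9-bradykinin 0.5 nM, rat B1R with Des-Arg9-bradykinin 100 nM; reported as % activation or % of maximal inhibition.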

The target in the next test is T2, human B1R receptor (Homo sapiens, UniProt P46663).
T2 construct: host or cells: CHO K1 cells (Chinese hamster ovary), stably transfected
T2 sequence (P46663 1-353): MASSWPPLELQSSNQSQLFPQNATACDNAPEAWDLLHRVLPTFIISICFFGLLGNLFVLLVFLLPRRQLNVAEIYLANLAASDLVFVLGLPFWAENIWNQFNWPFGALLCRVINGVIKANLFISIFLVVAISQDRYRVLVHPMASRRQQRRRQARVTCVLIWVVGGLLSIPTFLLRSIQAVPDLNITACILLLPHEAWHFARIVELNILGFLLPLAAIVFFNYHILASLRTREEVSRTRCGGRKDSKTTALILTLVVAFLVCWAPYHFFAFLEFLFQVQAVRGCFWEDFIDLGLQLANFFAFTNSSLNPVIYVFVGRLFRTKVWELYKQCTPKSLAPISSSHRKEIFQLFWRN
Description: Functional study on the bradykinin receptor 1 (B1R), FLIPR Ca2+ assay, hB1R cells. Format: cell-based. The following applies: CHO-K1, test substance 10 μM, agonist Lys-Des-Arg9-bradykinin 0.5 nM, % inhibition compared with the maximum achievable inhibition, read-out: B1R Antagonism, human [10 μM] % Inhibition. An outline of the steps:
as §1

Drawing on patent US8435978B2, “Substituted sulfonamide compounds” (Gruenenthal GmbH, priority 2006, dated 2013), this text covers inhibition for 23 compounds.

In general, inhibition refers to the relative decrease from the control value, in per cent.

`COc1cc(C)c(S(=O)(=O)N2CCCC2COCC(=O)N2CCN(CCc3ccccc3)CC2)c(C)c1` (stereo not shown) [Example 310, 2-((1-(4-methoxy-2,6-dimethylphenylsulfonyl)pyrrolidin-2-yl)methoxy)-1-(4-phenethylpiperazin-1-yl)ethanone]: the figures for the inhibition at 10 µM on B1R receptor of the rat and on human B1R receptor were 102% and 106%, respectively.

For `COc1cc(C)c(S(=O)(=O)N2CCCC2COCC(=O)N2CCN(c3cc(Cl)ccc3C)CC2)c(C)c1` (stereo not shown) [Example 311, 1-(4-(5-chloro-2-methylphenyl)piperazin-1-yl)-2-((1-(4-methoxy-2,6-dimethylphenylsulfonyl)pyrrolidin-2-yl)methoxy)ethanone], the inhibition at 10 µM on B1R receptor of the rat worked out at 103%; at human B1R receptor it was 94.9%.

Take `COc1cc(C)c(S(=O)(=O)N2CCCC2COCC(=O)N2CCN(c3ncccc3C#N)CC2)c(C)c1` (stereo not shown) [Example 312, 2-(4-(2-((1-(4-methoxy-2,6-dimethylphenylsulfonyl)pyrrolidin-2-yl)methoxy)acetyl)piperazin-1-yl)nicotinonitrile]: the inhibition at 10 µM on B1R receptor of the rat came out at 98.7%; on human B1R receptor it was 98.5%.

As to `O=C(COCC1CCCCN1S(=O)(=O)c1c(Cl)cccc1Cl)NCc1ccc(CN2CCCC2)cc1` (stereo not shown) [Example 313, 2-((1-(2,6-dichlorophenylsulfonyl)piperidin-2-yl)methoxy)-N-(4-(pyrrolidin-1-ylmethyl)benzyl)acetamide], the inhibition at 10 µM at B1R receptor of the rat and on human B1R receptor was 103% each time.

As to `O=C(COCC1CCCCN1S(=O)(=O)c1c(Cl)cccc1Cl)NCC1CCCN(Cc2ccccc2)C1` (stereo not shown) [Example 314, N-((1-benzylpiperidin-3-yl)methyl)-2-((1-(2,6-dichlorophenylsulfonyl)piperidin-2-yl)methoxy)acetamide], the inhibition at 10 µM on B1R receptor of the rat turned out to be 104%; at human B1R receptor, 105%.

With `CN(C(=O)COCC1CCCCN1S(=O)(=O)c1c(Cl)cccc1Cl)[C@H]1CCN(Cc2ccccc2)C1` (stereo partly drawn) [Example 315, N—((S)-1-benzylpyrrolidin-3-yl)-2-((1-(2,6-dichlorophenylsulfonyl)piperidin-2-yl)methoxy)-N-methylacetamide], the results for the inhibition at 10 µM at B1R receptor of the rat and on human B1R receptor were 101% and 105%, respectively.

For `O=C(COCC1CCCCN1S(=O)(=O)c1c(Cl)cccc1Cl)N1CCN(c2ccccn2)CC1` (stereo not shown) [Example 316, 2-((1-(2,6-dichlorophenylsulfonyl)piperidin-2-yl)methoxy)-1-(4-(pyridin-2-yl)piperazin-1-yl)ethanone], the values for the inhibition at 10 µM on B1R receptor of the rat and on human B1R receptor were 98.2% and 82.7%, respectively.

On to `COc1cccc(N2CCN(C(=O)COCC3CCCCN3S(=O)(=O)c3c(Cl)cccc3Cl)CC2)c1` (stereo not shown) [Example 317, 2-((1-(2,6-dichlorophenylsulfonyl)piperidin-2-yl)methoxy)-1-(4-(3-methoxyphenyl)piperazin-1-yl)ethanone], for which the figures for the inhibition at 10 µM on B1R receptor of the rat and at human B1R receptor were 100% and 92.2%, respectively.

For the compound `O=C(COCC1CCCCN1S(=O)(=O)c1c(Cl)cccc1Cl)N1CCN(c2ccc(F)cc2)CC1` (stereo not shown) [Example 318, 2-((1-(2,6-dichlorophenylsulfonyl)piperidin-2-yl)methoxy)-1-(4-(4-fluorophenyl)piperazin-1-yl)ethanone], the inhibition at 10 µM on B1R receptor of the rat and at human B1R receptor was 102% throughout.

As for `COc1ccc(N2CCN(C(=O)COCC3CCCCN3S(=O)(=O)c3c(Cl)cccc3Cl)CC2)cc1` (stereo not shown) [Example 319, 2-((1-(2,6-dichlorophenylsulfonyl)piperidin-2-yl)methoxy)-1-(4-(4-methoxyphenyl)piperazin-1-yl)ethanone], the inhibition at 10 µM on B1R receptor of the rat turned out to be 100%; at human B1R receptor, 104%.

Regarding `O=C(COCC1CCCCN1S(=O)(=O)c1c(Cl)cccc1Cl)N1CCN(CCc2ccccc2)CC1` (stereo not shown) [Example 320, 2-((1-(2,6-dichlorophenylsulfonyl)piperidin-2-yl)methoxy)-1-(4-phenethylpiperazin-1-yl)ethanone], the results for the inhibition at 10 µM on B1R receptor of the rat and on human B1R receptor were 102% and 106%, respectively.

As to `Cc1ccc(Cl)cc1N1CCN(C(=O)COCC2CCCCN2S(=O)(=O)c2c(Cl)cccc2Cl)CC1` (stereo not shown) [Example 321, 1-(4-(5-chloro-2-methylphenyl)piperazin-1-yl)-2-((1-(2,6-dichlorophenylsulfonyl)piperidin-2-yl)methoxy)ethanone], the figures for the inhibition at 10 µM on B1R receptor of the rat and on human B1R receptor were 100% and 41.2%, respectively.

As for `O=C(COCC1CCCN1S(=O)(=O)c1c(Cl)cccc1Cl)NCc1ccc(CN2CCCC2)cc1` (stereo not shown) [Example 322, 2-((1-(2,6-dichlorophenylsulfonyl)pyrrolidin-2-yl)methoxy)-N-(4-(pyrrolidin-1-ylmethyl)benzyl)acetamide], the results for the inhibition at 10 µM on B1R receptor of the rat and at human B1R receptor were 98.7% and 102%, respectively.

`O=C(COCC1CCCN1S(=O)(=O)c1c(Cl)cccc1Cl)NCC1CCCN(Cc2ccccc2)C1` (stereo not shown) [Example 323, N-((1-benzylpiperidin-3-yl)methyl)-2-((1-(2,6-dichlorophenylsulfonyl)pyrrolidin-2-yl)methoxy)acetamide]: the figures for the inhibition at 10 µM on B1R receptor of the rat and on human B1R receptor were 88.1% and 105%, respectively.

In the case of `COc1cccc(N2CCN(C(=O)COCC3CCCN3S(=O)(=O)c3c(Cl)cccc3Cl)CC2)c1` (stereo not shown) [Example 324, 2-((1-(2,6-dichlorophenylsulfonyl)pyrrolidin-2-yl)methoxy)-1-(4-(3-methoxyphenyl)piperazin-1-yl)ethanone], the inhibition at 10 µM on B1R receptor of the rat was 98.4%; at human B1R receptor, 84%.

Consider `COc1ccc(N2CCN(C(=O)COCC3CCCN3S(=O)(=O)c3c(Cl)cccc3Cl)CC2)cc1` (stereo not shown) [Example 325, 2-((1-(2,6-dichlorophenylsulfonyl)pyrrolidin-2-yl)methoxy)-1-(4-(4-methoxyphenyl)piperazin-1-yl)ethanone], for which the inhibition at 10 µM at B1R receptor of the rat amounted to 101%; at human B1R receptor it was 102%.

In the case of `O=C(COCC1CCCN1S(=O)(=O)c1c(Cl)cccc1Cl)N1CCN(CCc2ccccc2)CC1` (stereo not shown) [Example 326, 2-((1-(2,6-dichlorophenylsulfonyl)pyrrolidin-2-yl)methoxy)-1-(4-phenethylpiperazin-1-yl)ethanone], the figures for the inhibition at 10 µM on B1R receptor of the rat and on human B1R receptor were 101% and 104%, respectively.

Consider `O=C(COCC1CCCN1S(=O)(=O)c1c(Cl)cc(Cl)cc1Cl)NCC1CCCN(Cc2ccccc2)C1` (stereo not shown) [Example 327, N-((1-benzylpiperidin-3-yl)methyl)-2-((1-(2,4,6-trichlorophenylsulfonyl)pyrrolidin-2-yl)methoxy)acetamide], for which the inhibition at 10 µM is 101% at B1R receptor of the rat and 104% at human B1R receptor.

For `COc1ccc(N2CCN(C(=O)COCC3CCCN3S(=O)(=O)c3c(Cl)cc(Cl)cc3Cl)CC2)cc1` (stereo not shown) [Example 328, 1-(4-(4-methoxyphenyl)piperazin-1-yl)-2-((1-(2,4,6-trichlorophenylsulfonyl)pyrrolidin-2-yl)methoxy)ethanone], the inhibition at 10 µM is 102% on B1R receptor of the rat and 104% at human B1R receptor.

As to `O=C(COCC1CCCN1S(=O)(=O)c1c(Cl)cc(Cl)cc1Cl)N1CCN(CCc2ccccc2)CC1` (stereo not shown) [Example 329, 1-(4-phenethylpiperazin-1-yl)-2-((1-(2,4,6-trichlorophenylsulfonyl)pyrrolidin-2-yl)methoxy)ethanone], the inhibition at 10 µM is 98.2% at B1R receptor of the rat and 105% on human B1R receptor.

Regarding `CN1CCN(C2CCN(C(=O)COCC3CCCN3S(=O)(=O)c3c(Cl)cc(Cl)cc3Cl)CC2)CC1` (stereo not shown) [Example 330, 1-(4-(4-methylpiperazin-1-yl)piperidin-1-yl)-2-((1-(2,4,6-trichlorophenylsulfonyl)pyrrolidin-2-yl)methoxy)ethanone], the inhibition at 10 µM came out at 100% on B1R receptor of the rat and 104% at human B1R receptor.

Regarding `O=C(COCC1CCCN1S(=O)(=O)c1c(Cl)cc(Cl)cc1Cl)N1CCC(CCN2CCCCC2)CC1` (stereo not shown) [Example 331, 1-(4-(2-(piperidin-1-yl)ethyl)piperidin-1-yl)-2-((1-(2,4,6-trichlorophenylsulfonyl)pyrrolidin-2-yl)methoxy)ethanone], the inhibition at 10 µM at B1R receptor of the rat came to 101%; on human B1R receptor it was 106%.

Take `Cc1ccc(C)n1CCN1CCN(C(=O)COCC2CCCN2S(=O)(=O)c2c(Cl)cc(Cl)cc2Cl)CC1` (stereo not shown) [Example 332, 1-(4-(2-(2,5-dimethyl-1H-pyrrol-1-yl)ethyl)piperazin-1-yl)-2-((1-(2,4,6-trichlorophenylsulfonyl)pyrrolidin-2-yl)methoxy)ethanone]: the inhibition at 10 µM on B1R receptor of the rat was 101%; at human B1R receptor, 105%.
